The record followed here is US20230011869A1 (Hoffmann-La Roche Inc., priority 2018, published 2023).

SMILES strings stand for the structures. Counter-ions that a name gives are not always drawn.

The first experiment concerns Acinetobacter baumannii ATCC17978. The experiment is described as follows: Antimicrobial susceptibility testing: 90% growth inhibitory concentration (IC90) determination, Iso-Sensitest broth. It is filed as cell-based. The note with it: 90% growth inhibitory concentration, Acinetobacter baumannii ATCC17978, Iso-Sensitest broth, OD 600 nm over 16 h; read-out: ATCC17978 IC90. In a few lines: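 A. baumannii ATCC17978 grown in Iso-Sensitest broth across 10 compound concentrations at 35±2 °C.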
Consider `CNCC(=O)N1CCN(C(=O)c2ccc(Nc3nccn4c(-c5ccc(OC)c(Cl)c5)cnc34)cc2C)CC1` [Example 322, 1-[4-[4-[[3-(3-chloro-4-methoxyphenyl)imidazo[1,2-a]pyrazin-8-yl]amino]-2-methylbenzoyl]piperazin-1-yl]-2-(methylamino)ethanone; hy-drochloride], for which the IC90 turned out to be 280 nM.

Still in this experiment, the particulars now being: Acinetobacter baumannii, ATCC17978, 16 h, read-out: ATCC17978 IC90, 90% growth inhibitory concentration, Acinetobacter baumannii ATCC17978, Iso-Sensitest broth, OD 600 nm over 16 h.
For `Cc1cc(Nc2nccn3c(-c4ccc(OC(F)F)cc4)cnc23)ccc1C(=O)N1CCN(C(=O)CNC(=N)N)CC1` [Example 316, 1-[2-[4-[4-[[3-[4-(difluoromethoxy)phenyl]imi-dazo[1,2-a]pyrazin-8-yl]amino]-2-methylbenzoyl]piperazin-1-yl]-2-oxoethyl]guanidine; formic acid], the IC90 was 240 nM.
Consider `Cc1cc(Nc2nccn3c(-c4ccc(OC(F)F)cc4)cnc23)ccc1C(=O)N1CCN(C(=O)[C@@H](N)C(C)C)CC1` [Example 317, (2S)-2-amino-1-[4-[4-[[3-[4-(difluoromethoxy)phenyl]imi-dazo[1,2-a]pyrazin-8-yl]amino]-2-methylbenzyol]piperazin-1-yl]-3-methylbutan-1-one; hydrochloride], for which the IC90 came out at 240 nM.
Same read-out and setting: to `Cc1cc(Nc2nccn3c(-c4ccc(OC(F)F)cc4)cnc23)ccc1C(=O)N1CCC(C(=O)N2C3CCC2CNC3)CC1` [Example 318, [4-(3,8-diazabicyclo[3.2.1]octane-8-carbonyl)piperidin-1-yl]-[4-[[3-[4-(difluoromethoxy)phenyl]imi-dazo[1,2-a]pyrazin-8-yl]amino]-2-methylphenyl]methanone; hy-drochloride] belongs 250 nM.
Still for that read-out and setting: the same measure for `Cc1cc(Nc2nccn3c(-c4ccc(OC(F)F)cc4)cnc23)ccc1C(=O)N1CCN(C(=O)[C@H]2[C@@H]3CNC[C@@H]32)CC1` [Example 319, [4-[[3-[4-(difluoromethoxy)phenyl]imi-dazo[1,2-a]pyrazin-8-yl]amino]-2-methylphenyl]-[4-[rac-(1R,5S)-3-azabicyclo[3.1.0]hexane-6-carbonyl]piperazin-1-yl]methanone; hydrochloride]: 260 nM; for `CNCC(=O)N1CCN(C(=O)c2ccc(Nc3nccn4c(-c5ccc(OC(F)F)cc5)cnc34)cc2C)CC1` [Example 320, 1-[4-[4-[[3-[4-(difluoromethoxy)phenyl]imi-dazo[1,2-a]pyrazin-8-yl]amino]-2-methylbenzoyl]piperazin-1-yl]-2-(methylamino)ethanone; hy-drochloride]: 280 nM; for `CNCCNC(=O)C1CCN(C(=O)c2ccc(Nc3nccn4c(-c5ccc(OC)c(F)c5F)cnc34)cc2C)CC1` [Example 321, 1-[4-[[3-(2,3-difluoro-4-methoxyphenyl)imidazo[1,2-a]pyrazin-8-yl]amino]-2-methylbenzoyl]-N-[2-(methylamino)ethyl]piperidine-4-carboxamide; hydrochloride]: 280 nM.
Still for that read-out and setting: to `Cc1cc(Nc2nccn3c(-c4ccc(OC(F)F)cc4)cnc23)ccc1C(=O)N1CCC(C(=O)N2CCNC(C)(C)C2)CC1` [Example 323, [4-[[3-[4-(difluoromethoxy)phenyl]imi-dazo[1,2-a]pyrazin-8-yl]amino]-2-methylphenyl]-[4-(3,3-dimethylpiperazin-1-carbonyl)piperidin-1-yl]methanone; hydrochloride] belongs 300 nM.
`Cc1cc(Nc2nccn3c(-c4ccc(OC(F)F)cc4)cnc23)ccc1C(=O)N1CCN(C(=O)C2(F)CCNCC2)CC1` [Example 324, [4-[[3-[4-(difluoromethoxy)phenyl]imi-dazo[1,2-a]pyrazin-8-yl]amino]-2-methylphenyl]-[4-(4-fluoropiperidine-4-carbonyl)piperazin-1-yl]methanone]: the IC90 was found to be 330 nM.
The same measure, in the same setting: the same measure for `Cc1cc(Nc2nccn3c(-c4ccc(OC(F)F)cc4)cnc23)ccc1C(=O)N1CCC(C(=O)N2CCCNCC2)CC1` [Example 325, [4-(1,4-diazepane-1-carbonyl)piperidin-1-yl]-[4-[[3-[4-(difluoromethoxy)phenyl]imi-dazo[1,2-a]pyrazin-8-yl]amino]-2-methylphenyl]methanone; hy-drochloride]: 340 nM.
Turning to `Cc1cc(Nc2nccn3c(-c4ccc(OC(F)F)cc4)cnc23)ccc1C(=O)N1CCC(C(=O)N2C[C@@H](O)[C@@H](O)[C@@H](O)C2)CC1` [Example 326, [4-[[3-[4-(difluoromethoxy)phenyl]imi-dazo[1,2-a]pyrazin-8-yl]amino]-2-methylphenyl]-[4-[rac-(3R,5S)-3,4,5-trihydroxypiperidine-1-carbonyl]piperidin-1-yl]methanone], the IC90 turned out to be 360 nM.
On the same count and under the same terms, to `Cc1cc(Nc2nccn3c(-c4ccc(OC(F)F)cc4)cnc23)ccc1C(=O)N1CCN(C(=O)C[C@H](C)N)CC1` [Example 327, (3S)-3-amino-1-[4-[4-[[3-[4-(difluoromethoxy)phenyl]imi-dazo[1,2-a]pyrazin-8-yl]amino]-2-methylbenzoyl]piperazin-1-yl]butan-1-one; hydrochloride] belongs 380 nM; to `COc1ccc(-c2cnc3c(Nc4ccc(C(=O)N5CCC(C(=O)NCC6CNC6)CC5)c(C)c4)nccn23)cc1F` [Example 328, N-(azetidin-3-ylmethyl)-1-[4-[[3-(3-fluoro-4-methoxyphenyl)imidazo[1,2-a]pyrazin-8-yl]amino]-2-methylbenzoyl]piperidine-4-carboxamide; hydrochloride], 390 nM.
Still for that read-out and setting: to `Cc1cc(Nc2nccn3c(-c4ccc(OC(F)F)cc4)cnc23)ccc1C(=O)N1CCN(C(=O)CC(C)(C)N)CC1` [Example 329, 3-amino-1-[4-[4-[[3-[4-(difluoromethoxy)phenyl]imi-dazo[1.2-a]pyrazin-8-yl]amino]-2-methylbenzoyl]piperazin-1-yl]-3-methylbutan-1-one; hydrochloride] belongs 400 nM; to `CCc1cc(Nc2nccn3c(-c4ccc(OC)c(F)c4)cnc23)ccc1C(=O)N1CCC(C(=O)NCCNC)CC1` [Example 330, 1-[2-ethyl-4-[[3-(3-fluoro-4-methoxyphenyl)imidazo[1,2-a]pyrazin-8-yl]amino]benzoyl]-N-[2-(methylamino)ethyl]piperidine-4-carboxamide; hydrochloride], 400 nM; to `CNCCC(=O)N1CCN(C(=O)c2ccc(Nc3nccn4c(-c5ccc(OC(F)F)cc5)cnc34)cc2C)CC1` [Example 332, 1-[4-[4-[[3-[4-(difluoromethoxy)phenyl]imi-dazo[1,2-a]pyrazin-8-yl]amino]-2-methylbenzoyl]piperazin-1-yl]-3-(methylamino)propan-1-one; hydrochloride], 410 nM.

The same experiment, now with this note: read-out: ATCC17978 IC90; 90% growth inhibitory concentration, Acinetobacter baumannii ATCC17978, Iso-Sensitest broth, OD 600 nm over 16 h.
As to `CNCC(=O)N1CCN(C(=O)c2ccc(Nc3nccn4c(-c5ccc(OC(F)F)cc5)cnc34)cc2C)CC1` [Example 331, 1-[4-[4-[[3-[4-(difluoromethoxy)phenyl]imi-dazo[1,2-a]pyrazin-8-yl]amino]-2-methylbenzoyl]piperazin-1-yl]-2-(methylamino)ethanone], the IC90 came out at 410 nM.
For the compound `Cc1cc(Nc2nccn3c(-c4ccc(OC(F)F)cc4)cnc23)ccc1C(=O)N1CCN(C(=O)CNC(=N)N)CC1` [Example 333, 1-[2-[4-[4-[[3-[4-(difluoromethoxy)phenyl]imi-dazo[1,2-a]pyrazin-8-yl]amino]-2-methylbenzoyl]piperazin-1-yl]-2-oxoethyl]guanidine], the IC90 turned out to be 410 nM.
